Measured values from patent US20130237590A1, “ASSESSING THYROID NEOPLASMS” (MAYO FOUNDATION FOR MEDICAL EDUCATION AND RESEARCH, priority 2010, published 2013).

Experiments:
[1] = tested on: PPARγ; test: PPRE luciferase reporter assay in WRO cells; assay type: cell-based
Protocol: (§1) Cells (0.3×10^6 cells/well) in six well plates were transfected using LT-1 reagent (Mirus, Madison Wis.) with 10 ng of Renilla (Promega, Madison, Wis.) and […] of PPRE-Aco-Luc reporter in triplicate. After 24 hours, cells were lysed and assayed using the dual luciferase kit (Promega). Data was calculated as a ratio of the luciferase to renilla expression and plotted as fold-change compared to vector. To test the effect of GW9662 on PPARγ activity, cells were treated 18 hours post transfection with either 2 μL DMSO or 10 μM GW9662 (a potent antagonist of PPARγ) for 24 hours prior to harvest and assay.

[2] = tested on: miR-122; test: miR-122 quantitation by quantitative RT-PCR in WRO cells; assay type: cell-based; details: WRO-vector cells treated with 10 μM GW9662 for 24 hours
Protocol: (§2) To generate stable lines, cells were seeded at 1×10^6 cells per 100 mm petri dish and transfected 24 hours later in multiples of six, with 10 μg each of vector or PPFP using LT-1 (Minus Bio, Madison, Wis.). For the generation of DN-PPARγ and miR stable cells, the DN-PPARγ construct (Reddi et al., Expression of the PAX8/PPARγ Fusion Protein Is Associated with Decreased Neovascularization In Vivo: Impact on Tumorigenesis and Disease Prognosis, Genes and Cancer, (2010)), mmu-Null, and mmu-miR122-EGFP constructs (Cellbio labs) were used. After 72 hours, WRO-Vector, WRO-PPFP, WRO-DN-PPARγ, FTC-Vector, and FTC−PPFP cells were obtained by selection in media containing 400 μg/mL of G418 (Invitrogen) with media changes every 72 hours. WRO-miR-Null and WRO-miR-122 cells were generated using 2.5 μg/mL puromycin selection. Pools of cells were harvested and analyzed for mRNA and microRNA expression by quantitative RT-PCR and for polypeptide expression by Western blotting.
(§3) RNA from each group of cells was isolated using TriZol Reagent (Invitrogen). […] PAX8/PPARγ fusion gene was detected by PCR using 5 μL of cDNA and a sense primer from exon 7 of PAX8 (5′-CGCGGATCCGCATT-GACTCACAGAGCA-3; SEQ ID NO:1; see, also, GenBank Accession No. NM_013953 and GI No.81295803) and antisense primer from exon 1 of PPARγ1 (5′-[…]-3; SEQ ID NO:2; GenBank Accession No. NM_138712 and GI No. 116284369). […]

[3] = tested on: ADAM-17; test: ADAM-17 transcript levels in WRO cells; assay type: cell-based; details: stable WRO cells
[4] = tested on: WRO cells; test: in vivo xenograft tumor formation assay, WRO stable cells; set-up: species or system athymic nude mice; details: WRO-PPFP cells, by 5 weeks
Protocol: (§4) Stable cells (10^7) were resuspended in 100 μL of growth media and injected subcutaneously into both flanks of 5 week-old athymic nude mice (Fox1^nu/nu, Harlan, Indianapolis, Ind.). At least three mice were injected per group. Tumor size was determined weekly by measuring tumor length (L), width (W), and height (H) using vernier calipers (Vtumor=0.5236 LWH).

[5] = tested on: KTC-3 cells; test: in vivo xenograft tumor formation assay, KTC-3 anaplastic thyroid cancer cells; set-up: species or system athymic nude mice; details: KTC-3-PPFP anaplastic thyroid cancer cells; in 6 weeks
Protocol: (§5) To generate stable lines, cells were seeded at 1×10^6 cells per 100 mm petri dish and transfected 24 hours later in multiples of six, with 10 μg each of vector or PPFP using LT-1 (Minus Bio, Madison, Wis.). After 72 hours, ARO-Vector, ARO-PPFP, DRO-Vector, DRO-PPFP, FRO-Vector, FRO-PPFP, KTC-3-Vector, and KTC-3-PPFP cells were obtained by selection in media containing 400 μg/mL of G418 (Invitrogen) with media changes every 72 hours. Pools of cells were harvested and analyzed for PPFP expression by reverse transcriptase PCR.
as §4, with “(Fox1^nu/nu” for “(Fox1^nu/nu,”

[6] = tested on: WRO cells; test: in vitro cell growth of stable WRO cells (absorbance at 490 nm); assay type: cell-based; details: stable WRO cells compared to WRO-vector cells; 72 hours
Protocol: as §2

[7] = tested on: PPARγ; test: PPRE luciferase reporter assay in FTC-133 cells; assay type: cell-based; details: FTC-133-PPFP cells
Protocol: as §1

[8] = tested on: FRO cells; test: in vivo xenograft tumor formation assay, FRO anaplastic thyroid cancer cells; set-up: species or system athymic nude mice; details: FRO-PPFP anaplastic thyroid cancer cells; in 5 weeks
Protocol: as §5
as §4, with “(Fox1^nu/nu” for “(Fox1^nu/nu,”

[9] = tested on: DRO cells; test: in vivo xenograft tumor formation assay, DRO melanoma cells; set-up: species or system athymic nude mice; details: DRO-PPFP melanoma cells; by 6 weeks
Protocol: as §5
as §4, with “(Fox1^nu/nu” for “(Fox1^nu/nu,”

[10] = tested on: CD-31; test: microvessel density by CD-31 staining of WRO xenografts; assay type: in vivo, athymic nude mice; details: WRO xenografts compared to control xenografts
Protocol: Four tumors per group were formalin-fixed, paraffin-embedded, and individual sections stained with CD-31 (sc-1506-R, Santa Cruz, 1:200 dilution) specific antibody for 30-60 minutes and counterstained with hematoxylin. Antigen retrieval was done in EDTA at […] for 30 minutes after deparaffinization. Sections were blocked with peroxidase for 5 minutes and protein for 5 minutes. Antibody staining was visualized using Dako Envision plus System for 15 minutes followed by DAB chromogen for 10 minutes. Separate tumor sections were stained with hematoxylin and eosin to visualize tumor histology.
Stained slides were scanned using the Hamamatsu NanoZoomer (Bacus Laboratories, Inc., Chicago, Ill.). Digital images composed of multiple tiles (4096×64 pixel) were captured at 20× magnification. Image analysis was conducted as described elsewhere (Monahan et al., Endocrinology 150:4386-4394 (2009)). For each tumor section, the relative signal intensity from 10 randomly chosen fields (205×300 pixel) was quantified by histogram analysis (Adobe Photoshop). Data was expressed as signal intensity (signal pixel count divided by total image pixel count).

[11] = tested on: miR-122; test: miR-122 quantitation in WRO xenografts; assay type: in vivo, athymic nude mice
Protocol: RNA from each group of cells was isolated using TriZol Reagent (Invitrogen). RNA (1 μg) was reverse transcribed with oligo-dT primers using Message Sensor RT kit (Ambion, Austin, Tex.). PAX8/PPARγ fusion gene was detected by PCR using 5 μL of cDNA and a sense primer from exon 7 of PAX8 (5′-CGCGGATCCGCATT-GACTCACAGAGCA-3; SEQ ID NO:1; see, also, GenBank Accession No. NM_013953 and GI No.81295803) and antisense primer from exon 1 of PPARγ1 (5′-[…]-3; SEQ ID NO:2; GenBank Accession No. NM_138712 and GI No. 116284369). Glyceraldehyde 3-phosphate dehydrogenase (GAPDH) was amplified using kit primers. Xenografts were harvested at weeks 1 and 2 post induction and homogenized in T-PER (Pierce, Rockford, Ill.). RNA was extracted, and RT-PCR was performed for PPFP and GAPDH. Annealing temperature for PPFP and GAPDH was 55° C. for 30 seconds. miR-122 status was verified using TaqMan microRNA assays (Applied Biosystems) as per the manufacturer's instructions.
as §4

[12] = tested on: miR-122; test: miR-122 quantitation in FTC-133 cells; assay type: cell-based
Protocol: as §2, §3

[13] = tested on: FTC-133 cells; test: in vivo xenograft tumor formation assay, FTC-133 stable cells; set-up: species or system athymic nude mice; details: FTC-133-PPFP cells (PTEN-null); by 4 weeks; vs vector only
Protocol: as §4

[14] = tested on: ADAM-17; test: ADAM-17 transcript levels in immortalized thyrocytes; assay type: cell-based; details: immortalized thyrocytes (N-Thy-ori cells) expressing PPFP
[15] = tested on: ARO cells; test: in vivo xenograft tumor formation assay, ARO colon cancer cells; set-up: species or system athymic nude mice; details: ARO-PPFP colon cancer cells; by 4 weeks
Protocol: as §5
as §4, with “(Fox1^nu/nu” for “(Fox1^nu/nu,”

Q: Which PPRE activity ([1]; WRO-vector cells treated with 10 μM GW9662 for 24 hours) does the source give for `O=C(Nc1ccccc1)c1cc([N+](=O)[O-])ccc1Cl` [GW9662, reference compound] here?
A: The PPRE activity was “significant decrease in PPRE activity”.

Q: And the miR-122 expression [2]?
A: Its miR-122 expression is “not accompanied by increased miR-122 expression”.

Q: For “PPFP: PAX8/PPARγ fusion protein, constitutively expressed from a CMV promoter construct in stably transfected cancer cell lines”, which “reduction of ADAM-17 mRNA expression” value [3] is on record?
A: Its value is 50%.

Q: And the “inhibition of xenograft tumor progression” value [4]?
A: The value was 72%.

Q: And the “inhibition of xenograft tumor progression” value ([4]; vs vector only)?
A: The value was 9 fold.

Q: And the “inhibition of xenograft tumor progression” value [5]?
A: Its value is 77.2%.

Q: And the “decrease (inhibition) of in vitro cell growth” value [6]?
A: Its value is 19%.

Q: And the “inhibition of PPARγ activity (activation of PPRE)” value ([1]; stable WRO cells vs vector)?
A: The value was 29%.

Q: What about the “inhibition of activation of PPRE” value [7] of the same compound?
A: Its value is 69%.

Q: What about the “inhibition of xenograft tumor progression” value [8] of the same compound?
A: Its value is 80.1%.

Q: What about the “inhibition of xenograft tumor progression” value [9] of the same compound?
A: Its value is 57.5%.

Q: What about the “decrease in microvessel density (CD-31 staining)” value [10] of the same compound?
A: Its value is 2.1 fold.

Q: What about the “increase in miR-122 expression” value [11] of the same compound?
A: Its value is 40.0 (p < 0.054) fold.

Q: And the miR-122 expression ([12]; FTC-133(+PPFP) cells (PTEN-null))?
A: The miR-122 expression was “did not increase miR-122 expression”.

Q: And the “inhibition of xenograft tumor progression” value [13]?
A: The value was < 2 fold.

Q: What about the “reduction of ADAM-17 mRNA expression” value [14] of the same compound?
A: Its value is “not”.

Q: And the “inhibition of xenograft tumor progression” value [15]?
A: Its value is 39.5%.

Q: How did the “increase in miR-122 expression” value ([12]; transient expression of PTEN in FTC-133(+PPFP) cells vs vector only cells) turn out when “PTEN: PTEN transiently expressed from an expression plasmid in FTC-133 cells [reference compound]” was run?
A: Its value is 77 fold.
